Here are results for one molecule from EP2982368A1, “Small molecule compounds displacing focal adhesion core components” (Universität Konstanz, priority 2014, dated 2016).

For experiment [1], the target named is T1, Kinase domain of human FAK (Homo sapiens, UniProt Q05397, P410G).
T1 construct: Kinase domain of human FAK (aa 410-689, hFAK-KD) was expressed; 6xHis (N); made in house; host or cells: Sf9 insect cells (baculovirus, pVL1392)
The experiment is described as follows: ELISA-based in vitro kinase assay. Type of experiment: biochemical. The following applies: poly-Glu-Tyr substrate, 1 h at 30°C. Background: An ELISA detects its analyte on a solid surface through an enzyme-linked reagent.
Experimental: Kinase domain of human FAK (aa 410-689, hFAK-KD) was expressed with an amino-terminal 6xHis-tag and a carboxy-terminal Nef epitope-tag. FAK residue 410 was changed from proline to glycine. Expression of the fusion protein was performed in Sf9 insect cells using the pVL1392 transfer vector and the BacuIoGold Transfection Kit (BD Biosciences, San Diego, USA). Cells were lysed in Sf9 lysis buffer (0.33% Tween20, 1 mM EDTA, 500 mM NaCl, 100 µM PMSF, 1 mM β-Mercaptoethanol in 25 mM TrisHCl, pH 7.5) for 20 min at 4°C. Subsequently, the lysate was cleared by centrifugation and hFAK-KD was purified from the soluble fraction under native conditions by FPLC using a HisTrapFFcrude 1 mL column (GE Healthcare, Munich, Germany)
A microtiter plate was coated with 2 µg/well of poly(Glu:Tyr) (4:1) copolymer (Sigma-Aldrich, Steinheim, Germany) as artificial FAK substrate and blocked with 2% BSA in PBS with 0.01% Tween20. Purified hFAK-KD together with 100 µM ATP were added in kinase buffer (125 mM NaCl, 48 mM MgCl2, 50 mM HEPES, pH 7.5) in presence of various concentrations of test compounds and incubated for 1 h at 30°C. The reaction was stopped by the addition of EDTA and wells were extensively washed with 0.05% Tween20 in PBS. Phosphorylated substrate was detected by monoclonal anti-phosphotyrosine antibody followed by peroxidasecoupled goat anti-mouse antibody. […] The absorbance was measured at 450 nm.

In a further experiment the test system is FAK. The experiment in a line: Immunoblot of FAK and paxillin protein level and FAK Tyr397 phosphorylation. Type of experiment: cell-based, mouse. The following applies: serum-starved GFP-FAK MEFs, increasing concentrations, 30 min. The protocol:
Image J was used to automatically quantify FAK-containing focal adhesions due to local maxima of fluorescence intensity in the GFP-channel (5 to 70 pixel). The number of cells was automatically counted in the Hoechst channel. To test reproducibility of the system 40 control wells were quantified wherein four positions for each well were imaged. […] GFP-FAK mouse embryonic fibroblasts were seeded on fibronectin and incubated for 1 h with the indicated concentrations of the small compounds, respectively. […] GFP-FAK mouse embryonic fibroblasts were seeded on fibronectin and serum-starved overnight. The indicated concentrations of Mb31 were applied for 30 min. Cells were lysed and analyzed for paxillin and FAK protein level as well as FAK Tyr397 phosphorylation. […] The purified kinase domain of FAK was incubated with increasing amounts of Mb31 for 1 h at 30°C together with poly-Glu-Tyr as a FAK substrate. […] Cell viability was assessed by MTT assay. […] Migration was recorded from cells that were cultured without serum (A), with serum (B) or with serum in the presence of 3 µM Mb31 (C). […] Mouse embryonic fibroblasts (MEFs) were transfected with talin-mCherry and talin dynamics analyzed in focal adhesions using fluorescence recovery after photobleaching (FRAP). […] (C) Wound closure was microscopically analyzed and evaluated using ImageJ software. […]
For orientation: Immunoblotting shows a protein as a band on a membrane.

In a further experiment the target is T2, paxillin (Mus musculus, UniProt Q8VI36).
T2 construct: endogenous in cells; host or cells: FAK-/- mouse embryonic fibroblasts
T2 sequence (Q8VI36 whole entry): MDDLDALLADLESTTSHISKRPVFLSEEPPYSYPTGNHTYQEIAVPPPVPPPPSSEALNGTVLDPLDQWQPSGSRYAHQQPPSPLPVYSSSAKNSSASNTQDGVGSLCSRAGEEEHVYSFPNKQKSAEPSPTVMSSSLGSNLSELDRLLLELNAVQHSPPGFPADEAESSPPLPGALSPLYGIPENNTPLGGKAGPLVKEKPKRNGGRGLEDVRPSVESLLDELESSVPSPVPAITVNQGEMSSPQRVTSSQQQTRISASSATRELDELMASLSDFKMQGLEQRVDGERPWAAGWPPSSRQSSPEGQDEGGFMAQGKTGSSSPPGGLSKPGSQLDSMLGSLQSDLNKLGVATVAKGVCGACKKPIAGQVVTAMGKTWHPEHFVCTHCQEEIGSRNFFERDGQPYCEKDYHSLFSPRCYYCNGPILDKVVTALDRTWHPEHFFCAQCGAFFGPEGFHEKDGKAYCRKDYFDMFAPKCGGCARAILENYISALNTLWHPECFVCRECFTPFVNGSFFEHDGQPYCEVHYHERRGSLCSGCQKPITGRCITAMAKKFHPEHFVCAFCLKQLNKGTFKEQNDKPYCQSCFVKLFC
The experiment is described as follows: Paxillin displacement in FAK-deficient MEFs (immunostaining, confocal microscopy). Type of experiment: cell-based.

In the next experiment the test system is NIH-v-Src fibroblasts. The experiment is described as follows: EGF-stimulated cell migration of transformed cells. The format is cell-based. Particulars: 10 ng/ml EGF, tracked 6 h before and 6 h after addition. The protocol: (§1) Image J was used to automatically quantify FAK-containing focal adhesions due to local maxima of fluorescence intensity in the GFP-channel (5 to 70 pixel). The number of cells was automatically counted in the Hoechst channel. To test reproducibility of the system 40 control wells were quantified wherein four positions for each well were imaged. […] GFP-FAK mouse embryonic fibroblasts were seeded on fibronectin and incubated for 1 h with the indicated concentrations of the small compounds, respectively. […] GFP-FAK mouse embryonic fibroblasts were seeded on fibronectin and serum-starved overnight. The indicated concentrations of Mb31 were applied for 30 min. Cells were lysed and analyzed for paxillin and FAK protein level as well as FAK Tyr397 phosphorylation. […] The purified kinase domain of FAK was incubated with increasing amounts of Mb31 for 1 h at 30°C together with poly-Glu-Tyr as a FAK substrate. […] Serum-starved GFP-FAK mouse embryonic fibroblasts were stimulated with normal growth medium and incubated for 5 h with the indicated concentrations of the small molecule compounds, respectively. Cell viability was assessed by MTT assay. […] GFP-FAK MEFs were seeded on fibronectin and serum-starved overnight. Migration was stimulated by replacing the medium with normal growth medium. Migration of single cells was tracked for 8 h in 30 min intervals. Migration was recorded from cells that were cultured without serum (A), with serum (B) or with serum in the presence of 3 µM Mb31 (C). […] (A) GFP-FAK MEFs were seeded and serum-starved as in Figure 10. Cell migration was stimulated with normal growth medium and single cells were tracked for 5 h. […] Mouse embryonic fibroblasts (MEFs) were transfected with talin-mCherry and talin dynamics analyzed in focal adhesions using fluorescence recovery after photobleaching (FRAP). […] (C) Wound closure was microscopically analyzed and evaluated using ImageJ software.
To further determine whether Mb31 interferes with cell motility, GFP-FAK MEFs were serum-stimulated and migration was quantified on a single cell basis (Figures 11 and 12). […]

In experiment [2] the test system is MDA-MB-231 breast cancer cells. The experiment in a line: In vitro wound healing assay. Type of experiment: cell-based, human. The following applies: 3 µM, 25 h, serum-containing growth medium. As to the method:
as §1, with “h. (B) Mb31 was added and the same cells were tracked for additional 5 h. (C) Mean velocities of differently treated cells were plotted over time. […] NIH-v-Src fibroblasts were seeded on 2 µg/ml FN in DMEM/0.5%BSA and stimulated with 10 ng/ml EGF or kept unstimulated.” for “h.”, “(FRAP). Cells were left untreated (A) or treated with 10 µM of Mb31 (B). In untreated cells, the mCherry intensity recovered, indicating replacement of bleached by non-bleached talin and therefore turnover of talin at focal adhesions.” for “(FRAP).”
To determine if the migration of transformed cells can be blocked by FLocker1 and related compounds, human breast carcinoma cells (MDA-MB-231) were used in in vitro wound healing assays. […] The ability of the cells to migrate and close the wound space was monitored by microscopy and quantified (Figure 18B and C).

The next experiment concerns focal adhesions. The experiment is described as follows: Focal adhesion dynamics by TIRF microscopy (mKate-vinculin). Type of experiment: cell-based, mouse. Particulars: 5 µM, 40 minutes.

T1 sequence (Q05397 410-689 P410G): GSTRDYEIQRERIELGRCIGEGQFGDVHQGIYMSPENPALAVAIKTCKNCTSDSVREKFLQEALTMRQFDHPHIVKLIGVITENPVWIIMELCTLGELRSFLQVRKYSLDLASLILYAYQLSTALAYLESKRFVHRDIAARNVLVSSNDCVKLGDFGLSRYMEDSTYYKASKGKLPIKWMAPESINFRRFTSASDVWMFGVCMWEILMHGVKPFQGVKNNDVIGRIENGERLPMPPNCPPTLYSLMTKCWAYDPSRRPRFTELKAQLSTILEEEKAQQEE

For `O=[N+]([O-])C=Cc1cc(Br)cs1` [FootLocker 1, 4-bromo-2-(2-nitrovinyl)thiophene], the “in vitro activity of purified FAK kinase domain (FAK substrate phosphorylation)” value in experiment [1] is listed as “not altered”. In the experiment with FAK, the “Y397 phosphorylation of FAK” value is “not influenced”; the “degradation of FAK and paxillin (protein levels)” value is listed as “Neither for FAK nor for paxillin was any degradation observed”. The “paxillin displacement in FAK knockout MEFs” value at paxillin (30 min) is given as “efficiently displaced”. Further, the “concentration efficiently displacing paxillin” value on paxillin (FAK-/- MEF cells, 30 min, 1, 10, or 20 µM) is recorded as greater than 1 µM. Moreover, in the experiment with NIH-v-Src fibroblasts, the “migration of EGF-stimulated cells” value is given as “efficiently inhibit the migration”. In experiment [2], the “migration of cancer cells / wound closure” value is “retarded the migration of the cancer cells”. Besides, the “nascent adhesion formation and mobility of mature adhesions” value in the experiment with focal adhesions was “nascent adhesion formation was absent and mature adhesions were immobile”.
